According to US20220168328A1, “METHODS AND COMPOSITIONS FOR TREATING EUKARYOTIC INFECTIONS VIA ALTERING AGGREGATION DYNAMICS OF RAPTOR/KOG1” (ARIZONA BOARD OF REGENTS ON BEHALF OF THE UNIVERSITY OF …, priority 2014, published 2022):

Key:
ringworm = assay: Patient with ringworm treated with topical AICAR (Example 2); type: in vivo, human; settings: child, 3 g AICAR
Excerpt: A child (height of 165 cm, weight of 55 kg) presents to their primary care physician with a red and itchy rash on their forearm. The rash is in a circular pattern. The physician diagnoses the patient with ringworm. The physician administers a dose of a topical pharmaceutical containing 3 g of AICAR, an agent that activates TORC1 aggregate formation.

Kog1 = Kog1 foci (Kog1 bodies) resolution in WT cells after glucose starvation; type: cell-based, budding yeast; settings: cycloheximide (CHX) alone, without glucose repletion
esophageal candidiasis = assay: Patient with esophageal candidiasis treated with oral phenformin (Example 1); type: in vivo, human; settings: person, 200 mg phenformin
Protocol: The physician notes the presence of white plaques on the patient's tongue. The physician diagnoses esophageal candidiasis. The physician administers an oral pharmaceutical containing 200 mg of phenformin, an agent that activates TORC1 aggregate formation.

TORC1 = assay: DNA microarray measurement of TORC1 pathway output (gene expression) with and without rapamycin; type: cell-based, S. cerevisiae; settings: salt stress, 0.4M KCl; hog1Δ versus wild-type strain
Protocol: Previous studies of TOR pathway signaling in stress have been limited to measuring phosphorylation of a single substrate, Sch9. As a result it was not clear whether stress signals inhibit TORC1 activity directly or simply act on one or two TORC1 targets proteins. To help distinguish between these possibilities, the complete output of TORC1 pathway in osmotic stress was measured using DNA microarrays. To do this, the cellular response was monitored with and without the potent TORC1 inhibitor rapamycin in 0.4M KCl and three control conditions: amino acid starvation, nitrogen starvation and log growth conditions.
In osmotic stress, Hog1/p38, the terminal kinase in the HOG pathway, is known to regulate many aspects of the stress response including transcription, chromatin remodeling, cell cycle check-points, and ion and glycerol channel regulation. […]
(a) DNA microarray data comparing the gene expression program activated by KCl stress and the TORC1 inhibitor rapamycin. […] A phosphorylation-induced shift in the electrophoretic mobility of Sch9-3HA was measured by performing a western blot to a SDS-PAGE gel loaded with extract from cells collected before and after treatment with 0.4M KCl, using an anti-HA antibody. […] The experiment described in (b) was carried out in triplicate in wild-type and hog1A strains and the fraction of protein in the phosphorylated state was quantified using densitometry. […]

## NC(=O)c1ncn([C@@H]2O[C@H](CO)[C@@H](O)[C@H]2O)c1N [AICAR]
ringworm
  outcome by four days of treatment: the rash is gone

## C[C@@H]1C[C@@H]([C@H](O)CC2CC(=O)NC(=O)C2)C(=O)[C@@H](C)C1 [cycloheximide]
Kog1
  disaggregation of Kog1: does not trigger disaggregation of Kog1

## [H]/N=C(/N)N/C(=N/[H])NCCc1ccccc1 [phenformin]
Esophageal candidiasis; one day
  signs of improvement after one day of treatment: absence of white plaques on the tongue and no difficulty swallowing
Esophageal candidiasis; two days
  outcome by two days of treatment: sore throat is gone

## CO[C@H]1C[C@@H]2CC[C@@H](C)[C@@](O)(O2)C(=O)C(=O)N2CCCC[C@H]2C(=O)O[C@H]([C@H](C)C[C@@H]2CC[C@@H](O)[C@H](OC)C2)CC(=O)[C@H](C)/C=C(\C)[C@@H](O)[C@@H](OC)C(=O)[C@H](C)C[C@H](C)/C=C/C=C/C=C/1C [rapamycin]
TORC1
  more repression by rapamycin in hog1Δ than wt: 4 fold
